Key:
[1] = tested on: CD30+ parental DEL lymphoma cell line; experiment: In vitro cytotoxicity, CellTiter-Glo 96 h, DEL; type: cell-based; settings: Table 2, CD30+ parental DEL
Protocol: (§1) The parental DEL lymphoma cell line was cultured in the presence of brentuximab vedotin to induce over-expression of the MDR phenotype, resulting in the DEL brentuximab vedotin resistant line (DEL-BVR). Brentuximab vedotin, which is Ag2-vc-MMAE (DAR=4) was included as a control. Ex_4-1 refers to MP-PEG4-VKG-7-MAD-MDCPT.

[2] = tested on: CD30/MDR+ DEL-BVR cell line (DEL brentuximab vedotin resistant); experiment: In vitro cytotoxicity, CellTiter-Glo 96 h, DEL-BVR; type: cell-based; settings: Table 2, CD30/MDR+ DEL-BVR
Protocol: as §1

[3] = 1000 ng/mL, relative to untreated cells
[4] = DAR in parenthesis of label, 96 h

Brentuximab vedotin [Ag2-vcMMAE (4), reference compound]
percent cells remaining at highest concentration tested, DEL [1, 3]: (1) percent
IC50, DEL [1, 4]: 0.0005 µg/mL
percent cells remaining at highest concentration tested, DEL-BVR [2, 3]: (93) percent
IC50, DEL-BVR [2, 4]: >1 µg/mL
